pEC50: −log10 of the molar value. Read-outs that look alike come from different tables or passages of the source.
Key:
Assay type in all cases: cell-based
Bcl-xL [1] = target: T1, Bcl-xL (Homo sapiens, UniProt Q07817); assay: Protein degradation assay (Western blot) in IR-SC WI38 cells
T1 construct: endogenous in cells; host or cells: WI38 cells (normal NC-WI38 and ionizing-radiation-induced senescent IR-SC WI38)
Protocol: IR-SC WI38 cells were incubated with vehicle or increasing concentrations of XZ-14439 for 18 hours at increasing […] (FIG. 3A) and at a fixed concentration of XZ-14439 for increasing times (FIG. […]). The cells were digested with 0.25% trypsin and 1 mM EDTA, and harvested in RIPA lysis buffer with 1% Phosphatase Inhibitor Cocktail 3 and 1% Protease Inhibitor Cocktail. An equal amount of protein (15-30 μg/lane) from each cell extract was resolved on a 12% SDS-PAGE gel. Proteins were blotted onto a NOVEX PVDF membrane by electrophoresis. The membranes were blocked with TBS-T blocking buffer (5% nonfat milk in 25 mM Tris-HCL, pH 7.4; 3 mM KCl; […] NaCl; and 0.05% Tween) and probed with primary antibodies (at a predetermined optimal concentration) overnight at 4° C. or for 1 hour at room temperature. After extensive washing with TBS-T, the membranes were incubated with an appropriate peroxidase-conjugated secondary antibody for 1 hour at room temperature. After three washes with TBS-T, the proteins of interest were detected with ECL Western Blotting Detection Reagents and recorded with autoradiography (Pierce Biotech, Rockford, Ill., USA). The primary antibody Bcl-x (#2762), Bcl-2 antibody (#2872S) and β-actin (13E5, #4970) were purchased from Cell Signaling.
(§1) IR-SC WI38 (FIG. 4A) and RS4; 11 (FIG. 4B) cells were incubated with vehicle or increasing concentrations of compounds of Formula (I) or Formula (II) for 6 or 16 hours, at 1 μM (FIG. 4A) and 100 nm (FIG. 4B), respectively. The cells were harvested in RIPA lysis buffer with 1% Phosphatase Inhibitor Cocktail 3 and 1% Protease Inhibitor Cocktail. An equal amount of protein (15-30 μg/lane) from each cell extract was resolved on a 12% SDS-PAGE gel. Proteins were blotted onto a NOVEX PVDF membrane by electrophoresis. The membranes were blocked with TBS-T blocking buffer (5% nonfat milk in 25 mM Tris-HCL, pH 7.4; 3 mM KCl; 140 mM NaCl; and 0.05% Tween) and probed with primary antibodies (at a predetermined optimal concentration) overnight at 4° C. or for 1 hour at room temperature. After extensive washing with TBS-T, the membranes were incubated with an appropriate peroxidase-conjugated secondary antibody (Jackson ImmunoResearch Europe, Suffolk, UK) for 1 hour at room temperature. After three washes with TBS-T, the proteins of interest were detected with ECL Western Blotting Detection Reagents and recorded with autoradiography. The primary antibody Bcl-xl (#2762), Bcl-2 antibody (#2872S), Bcl-w (#2724S), Mcl-1 (#5453s) and β-actin (13E5, #4970) were purchased from Cell Signaling.

Normal WI38 (NSC) = assay: Viability of normal WI38 cells (NSC), 72 h, PI staining and flow cytometry
Protocol: (§2) Normal WI38 (NSC) and IR-induced senescent WI38 cells (IR-SC) were incubated with vehicle or increasing concentrations of compounds of Formula (I) or Formula (II) for 72 hours. The cells were digested with 0.25% trypsin and 1 mM EDTA, and harvested in PBS containing 2% FBS. After incubation with propidium iodide (PI, 100 ng/ml) in PBS at room temperature for 1 minute, cells were centrifuged at 1,200 rpm for 6 minutes to remove PI and then resuspended in PBS containing 2% FBS for analysis using a flow cytometer. Viable cells (PI-cells) were analyzed by flow cytometry at a constant flow rate to count the number of cells and calculated as a percentage of control cells treated with vehicle. Table 1 depicts the EC50 values of the compounds of Formula (I) and compounds of Formula (II) against normal WI38 and IR-induced senescent WI38.

[2] = tested on: IR-induced senescent WI38 cells (IR-SC); assay: Viability of IR-induced senescent WI38 cells (IR-SC), 72 h, PI staining and flow cytometry; conditions: for pEC50: IR-induced senescent WI38 cells, 72 hours, viable (PI-) cells as percentage of vehicle control; for Ratio NSC/SC: ratio of WI38 EC50 in NSC to EC50 in IR-SC
Protocol: as §2

NCI-H146 cancer cells = assay: Cancer cell viability by MTS, 72 h, NCI-H146
Protocol: (§3) RS4; 11 and NCI-H146 cancer cells were incubated with vehicle or increasing concentrations of compounds of Formula (I) and Formula (II). At 72 hours post-treatment cell viability was measured by MTS and EC50 was calculated as a percentage of control cells treated with vehicle. Table 1 depicts the EC50 values of compounds of Formula (I) and Formula (II) against RS4; 11 and NCI-H146.

Bcl-xL [3] = target: T1, Bcl-xL; assay: Protein degradation assay (Western blot) in RS4;11 cells; parameters: dose or concentration left out as unconfirmed
Protocol: as §1, with “IR-SC WI38 (FIG. 4A) and RS4; 11 (FIG. 4B) cells were incubated with vehicle or increasing concentrations of compounds of Formula (I) or Formula (II) for 6 or 16 hours, at 1 μM (FIG. 4A) and 100 nm (FIG. 4B), respectively.” left out

RS4; 11 cancer cells = assay: Cancer cell viability by MTS, 72 h, RS4;11; conditions: RS4;11 cells
Protocol: as §3

Bcl-xL [4] = target: T1, Bcl-xL; assay: Bcl-xL depletion in normal WI38 (NC-WI38) cells; conditions: 2 μM; FIG. 1
[5] = viable (PI-) cells as percentage of vehicle control
[6] = Homo sapiens, WI-38, viable (PI-) cells as percentage of vehicle control

T1 sequence (Q07817 whole entry): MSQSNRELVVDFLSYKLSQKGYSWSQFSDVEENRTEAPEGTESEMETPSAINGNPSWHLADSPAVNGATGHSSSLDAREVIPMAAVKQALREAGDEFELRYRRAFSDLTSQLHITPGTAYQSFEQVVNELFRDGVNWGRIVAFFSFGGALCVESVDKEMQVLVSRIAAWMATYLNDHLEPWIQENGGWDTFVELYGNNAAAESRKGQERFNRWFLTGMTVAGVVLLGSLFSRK

CC1(C)CCC(c2ccc(Cl)cc2)=C(CN2CCN(c3ccc(C(=O)NS(=O)(=O)c4ccc(N[C@H](CCN5CCN(C(=O)CCCn6cc(COCCOCCNc7cccc8c7C(=O)N(C7CCC(=O)NC7=O)C8=O)nn6)CC5)CSc5ccccc5)c(S(=O)(=O)C(F)(F)F)c4)cc3)CC2)C1 (stereo partly drawn) [PZ-15227] was tested, and the “Bcl-xL depletion in IR-SC WI38 cells” value (Bcl-xL [1]; 1 μM (FIG. 4A)) was “deplete Bcl-xL”, the pEC50 (Normal WI38 (NSC); [5]) was under 5.00 and the pEC50 [2] was 6.97. The “Ratio NSC/SC” value [2] was over 92, the pEC50 (NCI-H146 cancer cells) was 7.16 and the “Bcl-xL depletion in RS4; 11 cells” value (Bcl-xL [3]) was “deplete Bcl-xL”. The pEC50 (RS4; 11 cancer cells) was 6.94.
O=C1CCC(N2C(=O)c3cccc(NCCOCCOCCOCc4cn(CCCC(=O)N5CCN(CC#Cc6ccc(OCCCc7sc(N8CCc9cccc(C(=O)Nc%10nc%11ccccc%11s%10)c9C8)nc7C(=O)O)c(F)c6)CC5)nn4)c3C2=O)C(=O)N1 (stereo not drawn) [XZ-13906, 2-(8-(benzo[d]thiazol-2-ylcarbamoyl)-3,4-dihydroisoquinolin-2(1H)-yl)-5-(3-(4-(3-(4-(4-(4-((2-(2-(2-(2-(2,6-dioxopiperidin-3-yl)-1,3-dioxoisoindolin-4-ylamino)ethoxy)ethoxy)ethoxy)methyl)-1H-1,2,3-triazol-1-yl)butanoyl)piperazin-1-yl)prop-1-ynyl)-2-fluorophenoxy)propyl)thiazole-4-carboxylic acid] was tested, and the “Bcl-xL depletion in IR-SC WI38 cells” value (Bcl-xL [1]; 2 μM, FIG. 1) was “depletes Bcl-xL”, the “Bcl-xL depletion in normal WI38 (NC-WI38)” value (Bcl-xL [4]) was “depletes Bcl-xL” and the pEC50 (Normal WI38 (NSC); [6]) was 4.00. The pEC50 ([2]; Homo sapiens, WI-38) was 5.62, the “Ratio NSC/SC” value [2] was 41.67 and the pEC50 (NCI-H146 cancer cells; Homo sapiens) was under 5.70. For the same molecule, the pEC50 (RS4; 11 cancer cells; Homo sapiens) was under 5.70.
With CC1(C)CCC(c2ccc(Cl)cc2)=C(CN2CCN(c3ccc(C(=O)NS(=O)(=O)c4ccc(N[C@H](CCN5CCN(CCOCCOCCNc6cccc7c6C(=O)N(C6CCC(=O)NC6=O)C7=O)CC5)CSc5ccccc5)c(S(=O)(=O)C(F)(F)F)c4)cc3)CC2)C1 (stereo partly drawn) [XZ-15405, 4-(4-((4′-chloro-4,4-dimethyl-3,4,5,6-tetrahydro-[1,1′-biphenyl]-2-yl)methyl)piperazin-1-yl)-N-((4-(((2R)-4-(4-(2-(2-(2-((2-(2,6-dioxopiperidin-3-yl)-1,3-dioxoisoindolin-4-yl)amino)ethoxy)ethoxy)ethyl)piperazin-1-yl)-1-(phenylthio)butan-2-yl)amino)-3-((trifluoromethyl)sulfonyl)phenyl)sulfonyl)benzamide] the “Bcl-xL depletion in IR-SC WI38 cells” value (Bcl-xL [1]; 1 μM (FIG. 4A)) was “deplete Bcl-xL”, the pEC50 (Normal WI38 (NSC); [6]) was under 5.00 and the pEC50 ([2]; Homo sapiens, WI-38) was 6.82. For the same molecule, the “Ratio NSC/SC” value [2] was over 65.97, the “Bcl-xL depletion in RS4; 11 cells” value (Bcl-xL [3]) was “deplete Bcl-xL” and the pEC50 (RS4; 11 cancer cells; Homo sapiens) was 7.61.
CC1(C)CCC(c2ccc(Cl)cc2)=C(CN2CCN(c3ccc(C(=O)NS(=O)(=O)c4ccc(N[C@H](CCN5CCN(CCOCCNc6cccc7c6C(=O)N(C6CCC(=O)NC6=O)C7=O)CC5)CSc5ccccc5)c(S(=O)(=O)C(F)(F)F)c4)cc3)CC2)C1 (stereo partly drawn) [XZ-15416, 4-(4-((4′-chloro-4,4-dimethyl-3,4,5,6-tetrahydro-[1,1′-biphenyl]-2-yl)methyl)piperazin-1-yl)-N-((4-(((2R)-4-(4-(2-(2-((2-(2,6-dioxopiperidin-3-yl)-1,3-dioxoisoindolin-4-yl)amino)ethoxy)ethyl)piperazin-1-yl)-1-(phenylthio)butan-2-yl)amino)-3-((trifluoromethyl)sulfonyl)phenyl)sulfonyl)benzamide] was tested, and the “Bcl-xL depletion in IR-SC WI38 cells” value (Bcl-xL [1]; 1 μM (FIG. 4A)) was “deplete Bcl-xL”, the pEC50 (Normal WI38 (NSC); [6]) was under 5.00 and the pEC50 ([2]; Homo sapiens, WI-38) was over 6.81. The “Ratio NSC/SC” value [2] was over 64.02, the pEC50 (NCI-H146 cancer cells; Homo sapiens) was under 8.00 and the “Bcl-xL depletion in RS4; 11 cells” value (Bcl-xL [3]) was “deplete Bcl-xL”. The pEC50 (RS4; 11 cancer cells; Homo sapiens) was 7.51.
For CC1(C)CCC(c2ccc(Cl)cc2)=C(CN2CCN(c3ccc(C(=O)NS(=O)(=O)c4ccc(N[C@H](CCN5CCN(CCOCCOCCOCCNc6cccc7c6C(=O)N(C6CCC(=O)NC6=O)C7=O)CC5)CSc5ccccc5)c(S(=O)(=O)C(F)(F)F)c4)cc3)CC2)C1 (stereo partly drawn) [XZ-15418, 4-(4-((4′-chloro-4,4-dimethyl-3,4,5,6-tetrahydro-[1,1′-biphenyl]-2-yl)methy)piperazin-1-yl)-N-((4-(((2R)-4-(4-(2-(2-(2-(2-((2-(2,6-dioxopiperidin-3-yl)-1,3-dioxoisoindolin-4-yl)amino)ethoxy)ethoxy)ethoxy)ethyl)piperazin-1-yl)-1-(phenylthio)butan-2-yl)amino)-3-((trifluoromethyl)sulfonyl)phenyl)sulfonyl)benzamide], the “Bcl-xL depletion in IR-SC WI38 cells” value (Bcl-xL [1]; 1 μM (FIG. 4A)) was “deplete Bcl-xL”, the pEC50 (Normal WI38 (NSC); [5]) was under 5.00 and the pEC50 [2] was 6.76. For the same molecule, the “Ratio NSC/SC” value [2] was over 58.06, the “Bcl-xL depletion in RS4; 11 cells” value (Bcl-xL [3]) was “deplete Bcl-xL” and the pEC50 (RS4; 11 cancer cells) was 7.91.
CC1(C)CCC(c2ccc(Cl)cc2)=C(CN2CCN(c3ccc(C(=O)NS(=O)(=O)c4ccc(N[C@H](CCN5CCN(C(=O)Cn6cc(COCCOCCNc7cccc8c7C(=O)N(C7CCC(=O)NC7=O)C8=O)nn6)CC5)CSc5ccccc5)c(S(=O)(=O)C(F)(F)F)c4)cc3)CC2)C1 (stereo partly drawn) [XZ-15421] was tested, and the “Bcl-xL depletion in IR-SC WI38 cells” value (Bcl-xL [1]; 1 μM (FIG. 4A)) was “deplete Bcl-xL”, the pEC50 (Normal WI38 (NSC); [6]) was under 5.00 and the pEC50 ([2]; Homo sapiens, WI-38) was over 6.81. The “Ratio NSC/SC” value [2] was over 64.02, the “Bcl-xL depletion in RS4; 11 cells” value (Bcl-xL [3]) was “deplete Bcl-xL” and the pEC50 (RS4; 11 cancer cells; Homo sapiens) was 7.14.

— US11319316B2, “Compounds that induce degradation of anti-apoptotic Bcl-2 family proteins and the uses thereof” (BioVentures, LLC, priority 2016, dated 2022)
